System: T-47D spheroids with HUVEC/MSC, viability
Assay: Anticancer human tumor T-47D cell line growth inhibition [PI3K];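 note: spheroids exposed to agents for seven days before reading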;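 for viability, T/C: percent of DMSO vehicle control luminescence so 100% = untreated growth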
Settings: for viability, T/C: stronger effect = lower value
Summary of the method: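 Complex 3D spheroids (cancer cells + endothelial HUVEC + mesenchymal stem cells); drug pairs of targeted agent x inavolisib/alpelisib/duvelisib/copanlisib; half-log series from ~Cmax, max 10 microM if Cmax unknown; endpoint viability.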

[1] = curve of first compound, second compound 0.0316 µM
[2] = curve of first compound, second compound 0.1 µM
[3] = curve of first compound, second compound 0.316 µM
[4] = curve of first compound, second compound 1 µM
[5] = second compound 0.0316 µM, first compound 0.0316 µM
[6] = second compound 0.0316 µM, first compound 0.1 µM
[7] = second compound 0.1 µM, first compound 0.0316 µM
[8] = second compound 0.1 µM, first compound 0.1 µM
[9] = second compound 0.316 µM, first compound 0.0316 µM
[10] = second compound 0.316 µM, first compound 0.1 µM
[11] = second compound 1 µM, first compound 0.0316 µM
[12] = second compound 1 µM, first compound 0.1 µM
[13] = curve of first compound, second compound 3.16 µM
[14] = curve of first compound, second compound 10 µM
[15] = second compound 0.0316 µM, first compound 0.316 µM
[16] = second compound 0.0316 µM, first compound 1 µM
[17] = second compound 0.0316 µM, first compound 3.16 µM
[18] = second compound 0.0316 µM, first compound 10 µM
[19] = second compound 0.1 µM, first compound 0.316 µM
[20] = second compound 0.1 µM, first compound 1 µM
[21] = second compound 0.1 µM, first compound 3.16 µM
[22] = second compound 0.1 µM, first compound 10 µM
[23] = second compound 0.316 µM, first compound 0.316 µM
[24] = second compound 0.316 µM, first compound 1 µM
[25] = second compound 0.316 µM, first compound 3.16 µM
[26] = second compound 0.316 µM, first compound 10 µM
[27] = second compound 1 µM, first compound 0.316 µM
[28] = second compound 1 µM, first compound 1 µM
[29] = second compound 1 µM, first compound 3.16 µM
[30] = second compound 1 µM, first compound 10 µM
[31] = second compound 3.16 µM, first compound 0.0316 µM
[32] = second compound 3.16 µM, first compound 0.1 µM
[33] = second compound 3.16 µM, first compound 0.316 µM
[34] = second compound 3.16 µM, first compound 1 µM
[35] = second compound 3.16 µM, first compound 3.16 µM
[36] = second compound 3.16 µM, first compound 10 µM
[37] = second compound 10 µM, first compound 0.0316 µM
[38] = second compound 10 µM, first compound 0.1 µM
[39] = second compound 10 µM, first compound 0.316 µM
[40] = second compound 10 µM, first compound 1 µM
[41] = second compound 10 µM, first compound 3.16 µM
[42] = second compound 10 µM, first compound 10 µM

CC(C)n1nc(-c2ccc3oc(N)nc3c2)c2c(N)ncnc21 + COc1c(OCCCN2CCOCC2)ccc2c3n(c(=NC(=O)c4cnc(N)nc4)nc12)CCN3
IC50 (curve of first compound, second compound 0.00316 µM): 0.0566 µM | IC50 (curve of first compound, second compound 0.01 µM): 0.0391 µM | IC50 [1]: 0.00378 µM | IC50 [2]: < 0.000316 µM | IC50 [3]: < 0.000316 µM | IC50 [4]: < 0.000316 µM | viability, T/C (second compound 0.00316 µM, first compound 0.000316 µM): 103% | viability, T/C (second compound 0.00316 µM, first compound 0.001 µM): 82.3% | viability, T/C (second compound 0.00316 µM, first compound 0.00316 µM): 106% | viability, T/C (second compound 0.00316 µM, first compound 0.01 µM): 92.5% | viability, T/C (second compound 0.00316 µM, first compound 0.0316 µM): 77.6% | viability, T/C (second compound 0.00316 µM, first compound 0.1 µM): 23.1% | viability, T/C (second compound 0.01 µM, first compound 0.000316 µM): 103% | viability, T/C (second compound 0.01 µM, first compound 0.001 µM): 78.2% | viability, T/C (second compound 0.01 µM, first compound 0.00316 µM): 98.5% | viability, T/C (second compound 0.01 µM, first compound 0.01 µM): 78.3% | viability, T/C (second compound 0.01 µM, first compound 0.0316 µM): 57.7% | viability, T/C (second compound 0.01 µM, first compound 0.1 µM): 16.7% | viability, T/C (second compound 0.0316 µM, first compound 0.000316 µM): 80.9% | viability, T/C (second compound 0.0316 µM, first compound 0.001 µM): 58% | viability, T/C (second compound 0.0316 µM, first compound 0.00316 µM): 52.1% | viability, T/C (second compound 0.0316 µM, first compound 0.01 µM): 39.9% | viability, T/C [5]: 29.8% | viability, T/C [6]: 7.95% | viability, T/C (second compound 0.1 µM, first compound 0.000316 µM): 46% | viability, T/C (second compound 0.1 µM, first compound 0.001 µM): 36.5% | viability, T/C (second compound 0.1 µM, first compound 0.00316 µM): 31.2% | viability, T/C (second compound 0.1 µM, first compound 0.01 µM): 23.6% | viability, T/C [7]: 15.8% | viability, T/C [8]: 2.05% | viability, T/C (second compound 0.316 µM, first compound 0.000316 µM): 14.4% | viability, T/C (second compound 0.316 µM, first compound 0.001 µM): 17.3% | viability, T/C (second compound 0.316 µM, first compound 0.00316 µM): 12.6% | viability, T/C (second compound 0.316 µM, first compound 0.01 µM): 12.3% | viability, T/C [9]: 6.24% | viability, T/C [10]: 0.85% | viability, T/C (second compound 1 µM, first compound 0.000316 µM): 5.77% | viability, T/C (second compound 1 µM, first compound 0.001 µM): 4.9% | viability, T/C (second compound 1 µM, first compound 0.00316 µM): 6.77% | viability, T/C (second compound 1 µM, first compound 0.01 µM): 5.07% | viability, T/C [11]: 3.21% | viability, T/C [12]: 1.6%

Cn1nccc1Nc1nccc(-c2ccn(C(CO)c3ccc(Cl)c(F)c3)c(=O)c2)n1 (stereo not given) + CC(Nc1ncnc2nc[nH]c12)c1cc2cccc(Cl)c2c(=O)n1-c1ccccc1
IC50 [1]: > 10 µM | IC50 [2]: > 10 µM | IC50 [3]: > 10 µM | IC50 [4]: > 10 µM | IC50 [13]: > 10 µM | IC50 [14]: > 10 µM | viability, T/C [5]: 114% | viability, T/C [6]: 91.8% | viability, T/C [15]: 116% | viability, T/C [16]: 103% | viability, T/C [17]: 115% | viability, T/C [18]: 90.4% | viability, T/C [7]: 109% | viability, T/C [8]: 99.9% | viability, T/C [19]: 99.2% | viability, T/C [20]: 85.5% | viability, T/C [21]: 104% | viability, T/C [22]: 81% | viability, T/C [9]: 80.2% | viability, T/C [10]: 96.7% | viability, T/C [23]: 87.5% | viability, T/C [24]: 88.8% | viability, T/C [25]: 118% | viability, T/C [26]: 83.5% | viability, T/C [11]: 88.4% | viability, T/C [12]: 108% | viability, T/C [27]: 98.4% | viability, T/C [28]: 113% | viability, T/C [29]: 111% | viability, T/C [30]: 84.2% | viability, T/C [31]: 101% | viability, T/C [32]: 97.6% | viability, T/C [33]: 97.6% | viability, T/C [34]: 85.5% | viability, T/C [35]: 108% | viability, T/C [36]: 96.3% | viability, T/C [37]: 97.1% | viability, T/C [38]: 84.1% | viability, T/C [39]: 95.8% | viability, T/C [40]: 94% | viability, T/C [41]: 125% | viability, T/C [42]: 73.9%

CC(Cn1ccc(-c2ccc(C#N)c(Cl)c2)n1)NC(=O)c1cc(C(C)O)[nH]n1 (stereo not given) + CC(Nc1ncnc2nc[nH]c12)c1cc2cccc(Cl)c2c(=O)n1-c1ccccc1
IC50 [1]: > 10 µM | IC50 [2]: > 10 µM | IC50 [3]: > 10 µM | IC50 [4]: > 10 µM | IC50 [13]: > 10 µM | IC50 [14]: > 10 µM | viability, T/C [5]: 83.6% | viability, T/C [6]: 76.1% | viability, T/C [15]: 87.8% | viability, T/C [16]: 90% | viability, T/C [17]: 86.2% | viability, T/C [18]: 51% | viability, T/C [7]: 93.1% | viability, T/C [8]: 80% | viability, T/C [19]: 75.7% | viability, T/C [20]: 82.3% | viability, T/C [21]: 85.6% | viability, T/C [22]: 54.9% | viability, T/C [9]: 90.7% | viability, T/C [10]: 107% | viability, T/C [23]: 86.4% | viability, T/C [24]: 87.5% | viability, T/C [25]: 74.9% | viability, T/C [26]: 62.1% | viability, T/C [11]: 80.2% | viability, T/C [12]: 77.4% | viability, T/C [27]: 92.9% | viability, T/C [28]: 80.9% | viability, T/C [29]: 74.4% | viability, T/C [30]: 64% | viability, T/C [31]: 84.5% | viability, T/C [32]: 86.5% | viability, T/C [33]: 87.7% | viability, T/C [34]: 85.7% | viability, T/C [35]: 81.4% | viability, T/C [36]: 52.4% | viability, T/C [37]: 80.7% | viability, T/C [38]: 84.3% | viability, T/C [39]: 75.2% | viability, T/C [40]: 80.1% | viability, T/C [41]: 72.2% | viability, T/C [42]: 56.4%

C#Cc1c(F)ccc2cc(O)cc(-c3ncc4c(N5CC6CCC(C5)N6)nc(OCC56CCCN5CC(F)C6)nc4c3F)c12 (stereo not given)
viability, T/C (compound 0.1 µM): 99.3% [middle of 4 runs] | viability, T/C (compound 3.16 µM): 98.4% [middle of 4 runs] | viability, T/C (compound 10 µM): 96.3% [middle of 4 runs] | IC50 (curve of compound): > 10 µM

— PubChem BioAssay AID1963959 (Molecular Pharmacology Branch, DTP, NCI, 2024)
